From patent US8802849B2, “Tricyclic benzo[4,5]thieno-[2,3-d]pyrimidine-4-yl-amin derivatives, their salts, process for producing the compounds and their pharmaceutical use” (Vichem Chemie Kutató Kft., priority 2008, dated 2014)

Columns and labels:
InsR = InsR (Homo sapiens, UniProt P06213); experiment: InsR kinase assay; assay type: biochemical; conditions: 10 μM compound; read-out: InsR percent of inhibition
Procedure: (§1) General description of the kinase assays: the kinase activity was assayed in 96-well microtiter plates at a final compound concentration of 10 μM in a total volume of 50 μl. Compounds were dissolved in 100% DMSO to prepare a 10 mM stock solution and than diluted with buffer to reach a 10 μM (or the required) final concentration. The kinase concentration was used to yield 10% ATP turn over. The ATP concentration was used at the KmATP and 12.5 μCi/ml adenosine 5′[γ-33P]triphosphate. The substrate concentration was used at 5 fold excess over the Km for the substrate. The reaction was incubated for 1 hour at room temperature and stopped by addition of 10 μl 50 mM EDTA. The assay was transferred to a 96 well MAPH filter plate (Millipore). The radioactivity was counted on a Microbeta microplate counter.

P70S6K = P70S6K (Homo sapiens, UniProt P23443); experiment: P70S6K kinase assay; assay type: biochemical; conditions: 10 μM compound; read-out: P70S6K percent of inhibition
Procedure: as §1

MAPK-ERK1 = MAPK-ERK1 (Homo sapiens, UniProt P27361); experiment: MAPK-ERK1 kinase assay; assay type: biochemical; conditions: 10 μM compound; read-out: MAPK-ERK1 percent of inhibition
Sequence of MAPK-ERK1 (P27361 whole entry): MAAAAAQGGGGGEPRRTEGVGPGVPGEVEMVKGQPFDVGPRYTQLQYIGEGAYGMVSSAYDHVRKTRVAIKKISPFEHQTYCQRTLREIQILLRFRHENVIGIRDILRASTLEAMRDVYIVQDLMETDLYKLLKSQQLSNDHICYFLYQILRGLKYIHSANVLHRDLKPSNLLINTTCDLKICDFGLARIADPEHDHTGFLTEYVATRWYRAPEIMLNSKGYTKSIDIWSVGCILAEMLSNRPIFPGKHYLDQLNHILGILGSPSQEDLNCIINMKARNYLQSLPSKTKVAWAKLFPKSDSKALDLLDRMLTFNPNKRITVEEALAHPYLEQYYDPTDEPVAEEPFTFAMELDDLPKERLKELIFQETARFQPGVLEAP
Procedure: as §1

Jnk1a1 = Jnk1a1 (Homo sapiens, UniProt P45983); experiment: Jnk1a1 kinase assay; assay type: biochemical; conditions: 10 μM compound; read-out: Jnk1a1 percent of inhibition
Procedure: as §1

CK1-alpha = CK1-alpha (Homo sapiens, UniProt P48729); experiment: CK1-alpha kinase assay; assay type: biochemical; conditions: 10 μM compound; read-out: CK1-alpha percent of inhibition
Procedure: as §1

RSK1 = RSK1 (Homo sapiens, UniProt Q15418); experiment: RSK1 kinase assay; assay type: biochemical; conditions: 10 μM compound; read-out: RSK1 percent of inhibition
Sequence of RSK1 (Q15418 whole entry, species assumed): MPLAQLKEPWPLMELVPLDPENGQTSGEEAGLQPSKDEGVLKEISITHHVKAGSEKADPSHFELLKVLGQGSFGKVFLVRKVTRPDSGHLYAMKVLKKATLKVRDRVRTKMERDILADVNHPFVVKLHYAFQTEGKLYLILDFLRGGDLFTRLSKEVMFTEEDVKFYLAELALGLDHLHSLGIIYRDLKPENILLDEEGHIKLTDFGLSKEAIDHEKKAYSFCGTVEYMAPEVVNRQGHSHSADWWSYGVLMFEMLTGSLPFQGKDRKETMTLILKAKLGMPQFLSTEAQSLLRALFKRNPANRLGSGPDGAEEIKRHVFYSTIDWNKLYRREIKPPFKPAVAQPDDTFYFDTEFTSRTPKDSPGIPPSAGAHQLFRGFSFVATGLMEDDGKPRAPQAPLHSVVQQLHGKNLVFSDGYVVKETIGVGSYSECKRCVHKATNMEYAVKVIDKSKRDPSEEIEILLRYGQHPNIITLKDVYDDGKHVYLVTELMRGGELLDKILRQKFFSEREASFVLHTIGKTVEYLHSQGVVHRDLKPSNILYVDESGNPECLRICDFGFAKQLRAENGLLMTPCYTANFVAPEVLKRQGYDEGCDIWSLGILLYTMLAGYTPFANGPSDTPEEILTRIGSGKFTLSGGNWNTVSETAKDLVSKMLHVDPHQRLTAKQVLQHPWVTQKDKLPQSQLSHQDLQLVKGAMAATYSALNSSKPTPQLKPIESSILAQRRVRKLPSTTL
Procedure: as §1

Kit = Kit (Homo sapiens, UniProt P10721); experiment: Kit kinase assay; assay type: biochemical; conditions: 10 μM compound; read-out: Kit percent of inhibition
Procedure: as §1

CDK2/CycA = CDK2/CycA (Homo sapiens, UniProt P24941); experiment: CDK2/CycA kinase assay; assay type: biochemical; conditions: 10 μM compound; read-out: CDK2/CycA percent of inhibition
Procedure: as §1

cMet = cMet (Homo sapiens, UniProt P08581); experiment: cMet kinase assay; assay type: biochemical; conditions: 10 μM compound; read-out: cMet percent of inhibition
Procedure: as §1

PDGFR-beta = PDGFR-beta (Homo sapiens, UniProt P09619); experiment: PDGFR-beta kinase assay; assay type: biochemical; conditions: 10 μM compound; read-out: PDGFR-beta percent of inhibition
Sequence of PDGFR-beta (P09619 33-1106, species assumed): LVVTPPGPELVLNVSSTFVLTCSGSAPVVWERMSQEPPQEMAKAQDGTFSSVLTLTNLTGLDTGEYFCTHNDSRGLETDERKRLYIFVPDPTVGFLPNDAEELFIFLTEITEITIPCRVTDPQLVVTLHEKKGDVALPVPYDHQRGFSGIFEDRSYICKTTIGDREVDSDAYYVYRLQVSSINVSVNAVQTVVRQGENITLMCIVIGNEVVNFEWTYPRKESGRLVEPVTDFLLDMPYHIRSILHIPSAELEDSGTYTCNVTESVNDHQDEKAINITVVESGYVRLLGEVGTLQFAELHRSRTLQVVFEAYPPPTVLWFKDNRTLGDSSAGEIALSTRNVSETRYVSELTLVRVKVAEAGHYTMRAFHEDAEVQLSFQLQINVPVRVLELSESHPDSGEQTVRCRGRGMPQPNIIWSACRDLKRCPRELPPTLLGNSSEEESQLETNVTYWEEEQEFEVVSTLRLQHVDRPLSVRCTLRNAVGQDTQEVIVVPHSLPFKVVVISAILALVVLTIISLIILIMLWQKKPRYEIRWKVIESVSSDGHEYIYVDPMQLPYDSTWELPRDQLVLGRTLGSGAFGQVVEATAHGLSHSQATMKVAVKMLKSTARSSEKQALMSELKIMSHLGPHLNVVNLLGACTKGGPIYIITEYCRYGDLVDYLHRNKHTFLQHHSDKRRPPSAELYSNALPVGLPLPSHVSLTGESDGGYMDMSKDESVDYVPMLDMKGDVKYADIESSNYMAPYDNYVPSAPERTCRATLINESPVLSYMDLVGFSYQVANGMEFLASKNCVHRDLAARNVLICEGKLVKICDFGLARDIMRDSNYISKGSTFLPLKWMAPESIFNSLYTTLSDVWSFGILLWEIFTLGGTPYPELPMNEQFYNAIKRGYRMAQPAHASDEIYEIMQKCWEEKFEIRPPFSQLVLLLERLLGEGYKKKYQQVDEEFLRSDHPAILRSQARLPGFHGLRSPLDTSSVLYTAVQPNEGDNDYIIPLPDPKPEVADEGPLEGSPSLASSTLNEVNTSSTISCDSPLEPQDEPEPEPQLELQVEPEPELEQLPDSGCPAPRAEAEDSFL
Procedure: as §1

Abl = Abl (Homo sapiens, UniProt P00519); experiment: Abl kinase assay; assay type: biochemical; conditions: 10 μM compound; read-out: Abl percent of inhibition
Procedure: as §1

EGFR = EGFR (Homo sapiens, UniProt P00533); experiment: EGFR kinase assay (33P-ATP filter plate); assay type: biochemical; conditions: for inhibition at 10 µM: 10 μM compound, read-out: EGFR percent of inhibition; for IC50: EGFR-PTK assay
Procedure: as §1

GSK-3beta = GSK-3beta (Homo sapiens, UniProt P49841); experiment: GSK-3beta kinase assay; assay type: biochemical; conditions: 10 μM compound; read-out: GSK-3beta percent of inhibition
Sequence of GSK-3beta (P49841 whole entry, species assumed): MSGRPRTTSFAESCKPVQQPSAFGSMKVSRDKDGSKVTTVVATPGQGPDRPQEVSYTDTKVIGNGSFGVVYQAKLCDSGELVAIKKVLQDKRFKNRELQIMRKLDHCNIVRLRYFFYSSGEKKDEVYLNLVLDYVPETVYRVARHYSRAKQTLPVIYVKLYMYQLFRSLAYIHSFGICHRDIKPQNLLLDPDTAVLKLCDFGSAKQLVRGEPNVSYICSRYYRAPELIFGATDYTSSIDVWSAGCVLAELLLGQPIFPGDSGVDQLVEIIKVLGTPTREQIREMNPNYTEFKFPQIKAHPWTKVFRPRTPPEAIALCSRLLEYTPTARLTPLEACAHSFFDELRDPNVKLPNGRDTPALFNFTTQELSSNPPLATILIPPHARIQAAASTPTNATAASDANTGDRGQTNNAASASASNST
Procedure: as §1

IKK-beta = biological target: T1, IKK-beta (Homo sapiens, UniProt O14920); experiment: IKK-beta kinase assay; assay type: biochemical; conditions: 10 μM compound; read-out: IKK-beta percent of inhibition
T1 sequence (O14920 1-756): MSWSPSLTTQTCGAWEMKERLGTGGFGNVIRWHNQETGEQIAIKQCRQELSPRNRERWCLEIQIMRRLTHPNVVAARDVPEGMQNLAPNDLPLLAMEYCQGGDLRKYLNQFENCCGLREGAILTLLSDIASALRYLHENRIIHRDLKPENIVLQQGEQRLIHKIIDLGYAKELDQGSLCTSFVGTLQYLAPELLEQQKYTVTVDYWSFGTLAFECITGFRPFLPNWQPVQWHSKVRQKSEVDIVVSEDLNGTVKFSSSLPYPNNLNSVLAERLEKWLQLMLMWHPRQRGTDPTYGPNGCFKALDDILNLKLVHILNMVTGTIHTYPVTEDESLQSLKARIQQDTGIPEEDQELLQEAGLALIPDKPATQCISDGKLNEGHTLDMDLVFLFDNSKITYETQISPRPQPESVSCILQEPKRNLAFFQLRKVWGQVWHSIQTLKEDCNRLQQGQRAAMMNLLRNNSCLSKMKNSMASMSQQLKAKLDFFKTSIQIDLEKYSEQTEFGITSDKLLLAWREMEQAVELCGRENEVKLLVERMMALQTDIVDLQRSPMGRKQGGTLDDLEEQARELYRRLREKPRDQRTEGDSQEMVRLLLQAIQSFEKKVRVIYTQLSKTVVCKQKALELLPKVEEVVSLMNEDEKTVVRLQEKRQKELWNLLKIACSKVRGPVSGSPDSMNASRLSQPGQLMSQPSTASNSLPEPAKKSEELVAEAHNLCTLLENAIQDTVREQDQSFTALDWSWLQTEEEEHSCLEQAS
Procedure: as §1

P56Lck = P56Lck (Homo sapiens, UniProt P06239); experiment: P56Lck kinase assay; assay type: biochemical; conditions: 10 μM compound; read-out: P56Lck percent of inhibition
Sequence of P56Lck (P06239 whole entry, species assumed): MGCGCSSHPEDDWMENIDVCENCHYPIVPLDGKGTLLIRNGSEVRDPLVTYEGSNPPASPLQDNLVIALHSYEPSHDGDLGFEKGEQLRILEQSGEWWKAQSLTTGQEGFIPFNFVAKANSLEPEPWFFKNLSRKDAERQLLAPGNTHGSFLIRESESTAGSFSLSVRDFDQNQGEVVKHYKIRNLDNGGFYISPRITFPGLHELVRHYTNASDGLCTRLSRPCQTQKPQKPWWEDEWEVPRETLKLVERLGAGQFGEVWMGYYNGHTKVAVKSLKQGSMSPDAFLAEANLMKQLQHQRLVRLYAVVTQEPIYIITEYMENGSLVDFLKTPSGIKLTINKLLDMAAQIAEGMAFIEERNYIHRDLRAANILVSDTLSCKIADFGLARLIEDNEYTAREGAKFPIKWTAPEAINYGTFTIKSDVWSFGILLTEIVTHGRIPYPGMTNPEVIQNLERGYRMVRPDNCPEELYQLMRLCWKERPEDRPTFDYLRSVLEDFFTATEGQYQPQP
Procedure: as §1

SRPK1 = SRPK1 (Homo sapiens, UniProt Q96SB4); experiment: SRPK1 kinase assay; assay type: biochemical; conditions: 10 μM compound; read-out: SRPK1 percent of inhibition
Procedure: as §1

ROCK2 = ROCK2 (Homo sapiens, UniProt O75116); experiment: ROCK2 kinase assay; assay type: biochemical; conditions: 10 μM compound; read-out: ROCK2 percent of inhibition
Sequence of ROCK2 (O75116 whole entry, species assumed): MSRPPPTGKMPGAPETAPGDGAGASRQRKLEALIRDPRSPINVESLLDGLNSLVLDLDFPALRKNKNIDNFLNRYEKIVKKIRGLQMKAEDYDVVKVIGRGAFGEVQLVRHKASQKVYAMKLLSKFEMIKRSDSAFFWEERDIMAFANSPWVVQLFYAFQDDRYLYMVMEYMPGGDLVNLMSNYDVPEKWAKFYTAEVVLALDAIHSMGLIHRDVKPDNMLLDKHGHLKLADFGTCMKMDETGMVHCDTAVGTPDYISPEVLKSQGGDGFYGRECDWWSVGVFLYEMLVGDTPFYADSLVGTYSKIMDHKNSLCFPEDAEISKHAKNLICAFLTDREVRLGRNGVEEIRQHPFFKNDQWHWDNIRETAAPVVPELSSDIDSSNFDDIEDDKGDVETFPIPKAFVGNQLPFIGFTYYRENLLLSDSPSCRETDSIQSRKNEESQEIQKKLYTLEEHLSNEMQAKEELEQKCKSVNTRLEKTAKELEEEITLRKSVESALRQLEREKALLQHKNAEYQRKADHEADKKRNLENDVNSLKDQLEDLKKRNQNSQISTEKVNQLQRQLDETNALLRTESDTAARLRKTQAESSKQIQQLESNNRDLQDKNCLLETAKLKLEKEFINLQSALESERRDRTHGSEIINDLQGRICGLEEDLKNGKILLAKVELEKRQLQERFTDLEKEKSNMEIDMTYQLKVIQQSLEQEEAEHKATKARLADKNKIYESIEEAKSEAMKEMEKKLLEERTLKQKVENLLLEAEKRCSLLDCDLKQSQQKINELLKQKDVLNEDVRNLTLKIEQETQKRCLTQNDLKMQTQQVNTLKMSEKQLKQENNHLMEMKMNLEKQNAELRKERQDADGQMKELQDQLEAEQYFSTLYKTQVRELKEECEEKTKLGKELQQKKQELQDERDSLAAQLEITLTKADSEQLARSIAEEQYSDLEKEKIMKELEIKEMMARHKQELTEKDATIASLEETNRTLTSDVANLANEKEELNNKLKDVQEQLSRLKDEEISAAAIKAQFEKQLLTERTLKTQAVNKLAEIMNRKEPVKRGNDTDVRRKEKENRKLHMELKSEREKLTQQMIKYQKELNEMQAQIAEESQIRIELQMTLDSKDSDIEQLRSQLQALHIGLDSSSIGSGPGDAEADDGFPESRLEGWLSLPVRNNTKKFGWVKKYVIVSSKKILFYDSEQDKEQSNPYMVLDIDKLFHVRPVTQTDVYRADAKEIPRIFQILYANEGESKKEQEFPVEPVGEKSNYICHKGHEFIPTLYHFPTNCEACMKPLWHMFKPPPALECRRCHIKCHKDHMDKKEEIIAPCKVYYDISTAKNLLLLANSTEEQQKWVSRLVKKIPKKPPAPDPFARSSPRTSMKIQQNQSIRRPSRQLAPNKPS
Procedure: as §1

c-Raf = c-Raf (Homo sapiens, UniProt P04049); experiment: c-Raf kinase assay; assay type: biochemical; conditions: 10 μM compound; read-out: c-Raf percent of inhibition
Procedure: as §1

c-Src = c-Src (Homo sapiens, UniProt P12931); experiment: c-Src kinase assay; assay type: biochemical; conditions: 10 μM compound; read-out: c-Src percent of inhibition
Procedure: as §1

AKT1/PKBa = AKT1/PKBa (Homo sapiens, UniProt P31749); experiment: AKT1/PKBa kinase assay; assay type: biochemical; conditions: 10 μM compound; read-out: AKT1/PKBa percent of inhibition
Sequence of AKT1/PKBa (P31749 whole entry): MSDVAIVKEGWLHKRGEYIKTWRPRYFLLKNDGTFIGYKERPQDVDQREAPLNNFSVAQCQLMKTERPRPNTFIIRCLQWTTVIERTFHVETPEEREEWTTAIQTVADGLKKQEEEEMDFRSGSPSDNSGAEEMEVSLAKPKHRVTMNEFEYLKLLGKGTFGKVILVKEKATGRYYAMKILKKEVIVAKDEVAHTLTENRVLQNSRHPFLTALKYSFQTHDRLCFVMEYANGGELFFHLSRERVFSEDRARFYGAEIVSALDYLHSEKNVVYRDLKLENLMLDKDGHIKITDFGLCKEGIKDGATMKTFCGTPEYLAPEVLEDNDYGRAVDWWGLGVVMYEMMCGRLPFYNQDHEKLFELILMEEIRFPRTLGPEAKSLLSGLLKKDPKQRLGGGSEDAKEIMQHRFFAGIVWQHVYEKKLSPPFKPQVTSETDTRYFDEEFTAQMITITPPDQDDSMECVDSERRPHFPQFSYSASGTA
Procedure: as §1

inhibition at 10 µM (InsR) [%]	inhibition at 10 µM (P70S6K) [%]	inhibition at 10 µM (MAPK-ERK1) [%]	inhibition at 10 µM (Jnk1a1) [%]	inhibition at 10 µM (CK1-alpha) [%]	inhibition at 10 µM (RSK1) [%]	inhibition at 10 µM (Kit) [%]	inhibition at 10 µM (CDK2/CycA) [%]	inhibition at 10 µM (cMet) [%]	inhibition at 10 µM (PDGFR-beta) [%]	inhibition at 10 µM (Abl) [%]	inhibition at 10 µM (EGFR) [%]	inhibition at 10 µM (GSK-3beta) [%]	inhibition at 10 µM (IKK-beta) [%]	inhibition at 10 µM (P56Lck) [%]	inhibition at 10 µM (SRPK1) [%]	inhibition at 10 µM (ROCK2) [%]	inhibition at 10 µM (c-Raf) [%]	inhibition at 10 µM (c-Src) [%]	inhibition at 10 µM (AKT1/PKBa) [%]	SMILES	other results
-7	-23	-8	-4	6	-18	13	3	1	4	10	97	7	23	10	11	3	23	13	-5	Fc1ccccc1Nc1ncnc2sc3c(c12)CCCC3 [Compound 1, (2-Fluoro-phenyl)-(5,6,7,8-tetrahydro-benzo[4,5]thieno[2,3-d]pyrimidin-4-yl)-amine]	melting point: 160.7 °C
-6	-26	-14	-3	6	-22	-5	-1	-10	4	-19	98	3	19	25	-5	6	16	6	-7	Fc1cccc(Nc2ncnc3sc4c(c23)CCCC4)c1 [Compound 2, (3-Fluoro-phenyl)-(5,6,7,8-tetrahydro-benzo[4,5]thieno[2,3-d]pyrimidin-4-yl)-amine]	IC50 (EGFR): 12.4 nM; melting point: 210.6 °C
-9	4	0	4	17	23	-2	4	-8	1	-36	100	-10	11	17	8	12	-4	17	-27	Brc1cccc(Nc2ncnc3sc4c(c23)CCCC4)c1 [Compound 3, (3-Bromo-phenyl)-(5,6,7,8-tetrahydro-benzo[4,5]thieno[2,3-d]pyrimidin-4-yl)-amine]	IC50 (EGFR): 2.61 nM; melting point: 169 °C
44	-7	5	15	7	19	7	11	4	-12	4	99	-1	8	11	9	6	12	12	-8	Fc1ccc(Nc2ncnc3sc4c(c23)CCCC4)cc1 [Compound 6, (4-Fluoro-phenyl)-(5,6,7,8-tetrahydro-benzo[4,5]thieno[2,3-d]pyrimidin-4-yl)-amine]	IC50 (EGFR): 10.5 nM
